Here are results for one molecule from paper PMC8157947, “Peptidic boronic acids are potent cell-permeable inhibitors of the malaria parasite egress serine protease SUB1” (Proceedings of the National Academy of Sciences of the …, 2021).

What all share (format): cell-based, Plasmodium falciparum
The test system of data set [1] is P. falciparum schizonts. Put plainly: Ring formation after pretreatment of schizonts and washout. Conditions: pretreated schizonts washed, fresh RBCs, assessed at 24 h; 3j 10 μM, C2 1 μM. On the procedure: Short-term egress, invasion, and washout assays were performed essentially as described previously ([27], [28], [42]). Briefly, highly synchronous mature Percoll-enriched schizonts with or without added fresh RBCs (∼5% parasitaemia final) were incubated with compounds under test or vehicle only (DMSO, 1% vol/vol). For washout assays, schizonts were treated with C2 or various concentrations of inhibitor 3j for 1 to 4 h, then washed extensively (at least four times) prior to addition to fresh RBCs where required. After incubation at 37 °C for just 1 to 4 h (or overnight for invasion assays) to allow schizont rupture, cells were pelleted. Clarified culture supernatants were assessed for extent of hemoglobin release (a measure of schizont rupture) by absorption spectroscopy at 415 nm as described previously ([28]) or analyzed by Western blot using antibodies against SERA5 ([7], [11]). To quantify generation of new rings, samples of the cultures were fixed with 4% paraformaldehyde/0.02% glutaraldehyde and stained with SYBR Green I (Life Technologies) and then analyzed by flow cytometry on a BD FACSVerse using BD FACSuite software. Data were analyzed using FlowJo software. All cultures were also routinely analyzed by microscopic examination of Giemsa-stained thin films to visually assess parasite morphology.

The subject of data set [2] is P. falciparum schizonts. The data set is described as follows: MitoTracker Red CMXRos viability staining. Conditions: 10 μM, 1 h. On the procedure: Viewing chambers for live parasite microscopic examination were constructed as previously described ([7]). All images were recorded on a Nikon Eclipse Ni light microscope fitted with a Hamamatsu C11440 digital camera and Nikon N Plan Apo λ 63×/1.45NA oil immersion objective. For time-lapse video microscopy, differential interference contrast (DIC) images were taken at 10 s intervals over 30 min while fluorescence (mNeon Green) images were taken every 2 min to prevent bleaching. Time-lapse videos were analyzed and annotated using Fiji ([44]). For viability staining using the vital mitochondrial dye MitoTracker Red CMXRos (ThermoFisher Scientific; stored as a 10 μM stock in DMSO), the dye was added (20 nM final concentration) to a suspension of schizonts pretreated for 1 h with either DMSO (control, 1% vol/vol) or compound 3j (10 μM). The schizonts were incubated with the dye for 15 min at 37 °C, then washed twice, transferred to a viewing chamber, and observed immediately by dual DIC/fluorescence microscopy.

Data set [3] has as its system PfSUB1-mediated proteolytic processing of SERA5. Put plainly: Western blot of SERA5 processing after washout. The settings on record: 4 h pretreatment then washout. An excerpt:
To seek unambiguous confirmation that PfSUB1 is the intracellular target of compound 3j, we examined the effects of the compound on the PfSUB1-mediated proteolytic processing of the established endogenous PfSUB1 substrate SERA5, an abundant parasite PV protein that only becomes accessible to cleavage upon discharge of PfSUB1 into the PV in the minutes leading up to egress and is then released in a processed form into culture supernatants ([6], [11], [12]). […] It was concluded that compound 3j prevents egress and parasite proliferation through direct inhibition of intracellular PfSUB1.
Short-term egress, invasion, and washout assays were performed essentially as described previously ([27], [28], [42]). […] Clarified culture supernatants were assessed for extent of hemoglobin release (a measure of schizont rupture) by absorption spectroscopy at 415 nm as described previously ([28]) or analyzed by Western blot using antibodies against SERA5 ([7], [11]). To quantify generation of new rings, samples of the cultures were fixed with 4% paraformaldehyde/0.02% glutaraldehyde and stained with SYBR Green I (Life Technologies) and then analyzed by flow cytometry on a BD FACSVerse using BD FACSuite software. Data were analyzed using FlowJo software. All cultures were also routinely analyzed by microscopic examination of Giemsa-stained thin films to visually assess parasite morphology.
In general terms: In western blotting, separated proteins are transferred to a membrane and probed.

For `CC(=O)NC(C(=O)NC(C(=O)NCC(=O)NC(C)B(O)O)C(C)C)C1CCCC1` (stereo not drawn) [3j], the “ring production after washout” value in the data set with P. falciparum schizonts [1] is “No rings were produced”. In addition, the “viability (MitoTracker Red CMXRos incorporation)” value in the data set on P. falciparum schizonts [2] is reported as “remained viable”. Also, the SERA5 proteolytic processing entry in data set [3] is “prevented proteolytic processing and release of SERA5”.
